Data published in patent US5922708A, “Heteroaryl-oxazolidinones” (Bayer Aktiengesellschaft, priority 1996, dated 1999).
In brackets after ≈: the same amount, converted by molar mass. Like-named read-outs stand apart in the source and are kept apart here.

Assays:
Format in all cases: cell-based
[1] = tested on: Psdm. Bonn; assay: MIC by serial dilution method on Iso-Sensitest agar
Procedure: (§1) The minimum inhibitory concentrations (MIC) were determined by the serial dilution method on Iso-Sensitest agar (Oxoid). For each test substance a series of agar plates were prepared which contained decreasing concentrations of the active substance, obtained by twofold dilution from one plate to the next. The agar plates were inoculated with a Multipoint inoculator (Denley). Inoculation was effected using overnight cultures of the pathogens which had been diluted beforehand so that each inoculation point contained ca. 10^4 colony forming particles. The inoculated agar plates were incubated at 37° C. and the bacterial growth was evaluated after ca. 20 hours. The MIC value (μg/ml) indicates the lowest active substance concentration at which no growth was detectable with the naked eye.

[2] = tested on: Staph. 48N; assay: as above
Procedure: as §1

[3] = tested on: Staph. 9TV; assay: as above
Procedure: as §1

[4] = tested on: Klebs. 57 USA; assay: as above
Procedure: as §1

[5] = tested on: E. coli Neumann; assay: as above; conditions: Escherichia coli
Procedure: as §1

[6] = tested on: Staph. 133; assay: as above
Procedure: as §1

[7] = tested on: Staph. 25701; assay: as above
Procedure: as §1

[8] = tested on: Mycobacterium smegmatis DSM 43078; assay: MIC for rapidly growing mycobacteria, broth microdilution method; conditions: Mycolicibacterium smegmatis, DSM43078, inoculum 4.20E + 04 [/ml], 37° C., 2-4 days
Procedure: For rapidly growing mycobacteria the MIC were determined on the basis of the broth microdilution method described by Swenson [cf. J. M. Swenson, C. Thomberry, U. A. Silcox, Rapidly growing mycobacteria. Testing of susceptibility to 34 antimicrobial agents by broth microdilution. Antimicrobial Agents and Chemotherapy, vol. 22, 186-192 (1982)]. The brain-heart extract medium treated with 0.1 vol.% of Tween 80 was an exception.
The mycobacterial strains used were obtained from the DSM (Deutsche Sammlung von Mikroorganismen (German Collection of Microorganisms), Brunswick). They were incubated in a moist chamber at 37° C.
The MIC values were evaluated after 2-4 days, when the preparation-free controls were opaque due to growth.

[9] = Staph. 48N, agar, 37° C., ca. 20 hours, read-out: MIC
[10] = Staph. 9TV, agar, 37° C., ca. 20 hours, read-out: MIC
[11] = Klebs. 57 USA, agar, 37° C., ca. 20 hours, read-out: MIC
[12] = E. coli Neumann, agar, 37° C., ca. 20 hours, read-out: MIC
[13] = Staph. 133, agar, 37° C., ca. 20 hours, read-out: MIC
[14] = Staph. 25701, agar, 37° C., ca. 20 hours, read-out: MIC

**Q.** How did the MIC ([1]; 20 h) turn out when `O=C(CF)NC[C@H]1CN(c2ccc(-c3cccnc3)s2)C(=O)O1` [Example 18] was run?
**A.** Its MIC is greater than 64 µg/mL.

**Q.** What about the MIC ([2]; 20 h) of the same compound?
**A.** The MIC was 4 µg/mL (≈ 11.9 µM).

**Q.** And the MIC ([3]; 20 h)?
**A.** The MIC was 1 µg/mL (≈ 2.98 µM).

**Q.** What about the MIC ([4]; 20 h) of the same compound?
**A.** The MIC was greater than 64 µg/mL.

**Q.** And the MIC ([5]; 20 h)?
**A.** Its MIC is greater than 64 µg/mL.

**Q.** What about the MIC ([6]; 20 h) of the same compound?
**A.** The MIC was 2 µg/mL (≈ 5.96 µM).

**Q.** And the MIC ([7]; 20 h)?
**A.** The MIC was 4 µg/mL (≈ 11.9 µM).

**Q.** Which results are given for `CCCOC(=O)NC[C@H]1CN(c2ccc(-c3cccnc3)s2)C(=O)O1` [Example 20]?
**A.** MIC ([1]; Psdm. Bonn, agar, 37° C., ca. 20 hours, read-out: MIC): > 64 µg/mL; MIC [2, 9]: 2 µg/mL (≈ 5.53 µM); MIC [3, 10]: 2 µg/mL (≈ 5.53 µM); MIC [4, 11]: > 64 µg/mL; MIC [5, 12]: > 64 µg/mL; MIC [6, 13]: 2 µg/mL (≈ 5.53 µM); MIC [7, 14]: 2 µg/mL (≈ 5.53 µM)

**Q.** With `COC(=O)NC[C@H]1CN(c2ccc(Br)c(C)n2)C(=O)O1` [Example 25] as the compound, how does the MIC [2, 9] read?
**A.** The MIC was 2 µg/mL (≈ 5.81 µM).

**Q.** What about the MIC [3, 10] of the same compound?
**A.** The MIC was 1 µg/mL (≈ 2.91 µM).

**Q.** What about the MIC [4, 11] of the same compound?
**A.** Its MIC is greater than 64 µg/mL.

**Q.** What about the MIC [5, 12] of the same compound?
**A.** The MIC was greater than 64 µg/mL.

**Q.** What about the MIC [6, 13] of the same compound?
**A.** The MIC was 2 µg/mL (≈ 5.81 µM).

**Q.** And the MIC [7, 14]?
**A.** Its MIC is 2 µg/mL (≈ 5.81 µM).

**Q.** `NNC(=O)c1ccncc1` [Isoniazid] was tested. Which MIC [8] did it give?
**A.** Its MIC is 2 µg/mL.
